Data set [1] can be described thus: Chiral stability of Enantiomer 1A at pH 7.4 (ee% by chiral SFC). Type of data set: physicochemical. To be noted: buffered solution pH 7.4, 5 μM. As for the experimental part: The chiral stability of Enantiomer 1A (R═OMe) was evaluated by determination of the enantiomeric excess (ee %) after incubation for 24 h and 48 h in a buffered solution at pH 7.4 at 40° C. and 60° C. To assess the influence of the methoxy-substituent of Enantiomer 1A (R═OMe) on the stability against racemization, the chiral stability of Enantiomer 1′A (R═H) was tested under the same conditions.
To this end, 5 μM buffered (pH=7.4) solutions of 1A and 1′A were prepared by mixing 25 μL of a 100 μM solution of 1A or 1′A in DMSO with 475 μL aqueous buffer pH 7.4. Samples were taken 24 h and 48 h after incubation at 40° C. and 60° C. The analytical samples were analyzed by Chiral SFC (MS detection) and the chiral purity was expressed as the enantiomeric excess (ee %=% enantiomer A−% enantiomer B).

Data set [2] can be described thus: in vitro. To be noted: African green monkey. Type of data set: cell-based. As for the experimental part: The antiviral activity of the compounds of the invention was tested against DENV-1 strain TC974#666 (NCPV), DENV-2 strain 16681, DENV-3 strain H87 (NCPV) and DENV-4 strains H241 (NCPV) and EDEN (SG/06K2270DK1/2005; GenBank accession number QG398256) in a RT-qPCR assay. Therefore, Vero cells were infected with either DENV-1, or -2, or -3, or -4 in the presence or absence of test compounds. At day 3 post-infection, the cells were lysed and cell lysates were used to prepare cDNA of both a viral target (the 3′UTR of DENV; table 2) and a cellular reference gene (β-actin, table 2). Subsequently, a duplex real time PCR was performed on a Lightcycler480 instrument. The generated Cp value is inversely proportional to the amount of RNA expression of these targets. Inhibition of DENV replication by a test compound result in a shift of Cp's for the 3′UTR gene. On the other hand, if a test compound is toxic to the cells, a similar effect on β-actin expression will be observed. The comparative ΔΔCp method is used to calculate EC50, which is based on the relative gene expression of the target gene (3′UTR) normalized with the cellular housekeeping gene (β-actin). In addition, CC50 values were determined based on the Cp values acquired for the housekeeping gene β-actin.
The culture medium consisted of minimal essential medium supplemented with 2% of heat-inactivated fetal calf serum, 0.04% gentamycin (50 mg/mL) and 2 mM of L-glutamine. Vero cells, obtained from ECACC, were suspended in culture medium and 75 μL/well was added in 96-well plates (10000 cells/well), which already contain the antiviral compounds. Typically, these plates contain a 4-fold serial dilution of 9 dilution steps of the test compound at 200 times the final concentration in 100% DMSO (500 nL; final concentration range: 25 μM-0.00038 μM). In addition, each plate contains wells which are assigned as virus controls (containing cells and virus in the absence of compound) and cell controls (containing cells in the absence of virus and compound). Once the cells were added in the plates, the plates were incubated in a fully humidified incubator (37° C., 5% CO2) until the next day. Then, DENV-1 strain TC974#666, DENV-2 strain 16681, DENV-3 strain H87 or DENV-4 strains H241 or EDEN were added. […] In parallel, 25 μL of culture medium was added to the cell controls. Next, the plates were incubated for 3 days in a fully humidified incubator (37° C., 5% CO2). After 3 days, the supernatant was removed from the wells and the cells were washed twice with ice-cold PBS (˜100 μL). The cell pellets within the 96-well plates were stored at −80° C. for at least 1 day. Next, RNA was extracted using the Cells-to-CT™ lysis kit, according to the manufacture's guideline (Applied Biosystems). The cell lysates can be stored at −80° C. or immediately used in the reverse transcription step. In preparation of the reverse transcription step, mix A (table 3A) was prepared and 7.57 μL/well was dispensed in a 96-well plate. After addition of 5 μL of the cell lysates, a five minute denaturation step at 75° C. was performed (table 3B). Afterwards, 7.43 μL of mix B was added (table 3C) and the reverse transcription step was initiated (table 3D) to generate cDNA.
Finally, a RT-qPCR mix was prepared, mix C (table 4A), dispensed in 96-well LightCycler qPCR plates to which 3 μL of cDNA was added and the qPCR was performed according to the conditions in table 4B on a LightCycler 480. Using the LightCycler software and an in-house LIMS system, dose response curves for each compound were calculated and the half maximal effective concentration (EC50) and the half maximal cytotoxic concentration (CO50) were determined (Tables 6-9).

Data set [3] has as its system uninfected Vero cells. The experiment in a line: in vitro. The data set is classed as cell-based. The conditions noted are these: African green monkey. As for the experimental part:
Potential cytotoxic effects of the compounds were evaluated in uninfected Vero cells. Cells were seeded at 4×10^4 cells/well in a 96-well plate in the presence of two-, three- or five-fold serial dilutions (ranging from 50 μg/mL-0.0038 μg/mL, 50 μg/mL-0.0076 μg/mL, and 50 μg/mL-0.00013 μg/mL, respectively) of compound and incubated for 4 to 7 days. Culture medium was discarded and 100 μL 3-(4,5-dimethylthiazol-2-yl)-5-(3-carboxymethoxyphenyl)-2-(4-sulfophenyl)-2H-tetrazolium/phenazinemethosulfate (MTS/PMS; Promega, Leiden, The Netherlands) in PBS was added to each well. Following a 2-hour incubation period at 37° C., the optical density was determined at 498 nm. Cytotoxic activity was calculated using the following formula: % cell viability=100×(ODCompound/ODCC), where ODcompound and ODCC correspond to the optical density at 498 nm of the uninfected cell cultures treated with compound and that of uninfected, untreated cell cultures, respectively. The 50% cytotoxic concentration (i.e., the concentration that reduces the total cell number with 50%; CC50) was calculated using linear interpolation (Tables 7 and 8).

A short description of data set [4]: in vitro. Type of data set: cell-based. The conditions noted are these: African green monkey, CC50. The method in brief: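 Cytotoxicity read on the same Vero plates after the eGFP read-out: resazurin added, incubated a further 5 h at 37° C, 5% CO2, fluorescence read at 530 nm excitation. CC50 is the concentration reducing resazurin conversion by 50% versus cell-control wells; SI = CC50/EC50.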

In the case of `COc1cc(NC(C(=O)c2c[nH]c3cc(F)ccc23)c2ccc(F)cc2OC)cc(OCCO)c1` (single isomer, unassigned) [Compound 1A, 1-(6-fluoro-1H-indol-3-yl)-2-(4-fluoro-2-methoxyphenyl)-2-((3-(2-hydroxyethoxy)-5-methoxyphenyl)amino)ethanone], the “ee% (enantiomeric excess)” value was found to be 100% in data set [1] (40° C., 24 h); 100% in data set [1] (40° C., 48 h); 100% in data set [1] (60° C., 24 h); 96% in data set [1] (60° C., 48 h).

In data set [2], `COc1cc(NC(C(=O)c2c[nH]c3c(C)c(F)ccc23)c2ccc(F)cc2OC)cc(OCCO)c1` (single isomer, unassigned) [Compound 2B, 2-(4-fluoro-2-methoxyphenyl)-1-(6-fluoro-7-methyl-1H-indol-3-yl)-2-((3-(2-hydroxyethoxy)-5-methoxyphenyl)amino)ethanone] gave a CC50 at 3 days of 3.6 µM. The same compound came in with a CC50 in data set [3] of 15 µM.

For `COc1cc(NC(C(=O)c2c[nH]c3c(C)c(Cl)ccc23)c2ccc(F)cc2OC)cc(OCCO)c1` (single isomer, unassigned) [Compound 3A, 1-(6-chloro-7-methyl-1H-indol-3-yl)-2-(4-fluoro-2-methoxyphenyl)-2-((3-(2-hydroxyethoxy)-5-methoxyphenyl)amino)ethanone], in data set [2], the CC50 at 3 days came to 4.1 µM. For the same compound, in data set [3], it took 13 µM to reach half-maximal cytotoxicity (CC50).

The compound `COc1cc(NC(C(=O)c2c[nH]c3cc(Cl)ccc23)c2ccc(F)cc2OC)cc(OCCO)c1` (single isomer, unassigned) [Compound 4A, 1-(6-chloro-1H-indol-3-yl)-2-(4-fluoro-2-methoxyphenyl)-2-((3-(2-hydroxyethoxy)-5-methoxyphenyl)amino)ethanone] registered a CC50 in data set [3] of 18 µM.

Regarding `COc1cc(NC(C(=O)c2c[nH]c3c(F)c(F)ccc23)c2ccc(F)cc2OC)cc(OCCO)c1` (single isomer, unassigned) [Compound 5B, 1-(6,7-difluoro-1H-indol-3-yl)-2-(4-fluoro-2-methoxyphenyl)-2-((3-(2-hydroxyethoxy)-5-methoxyphenyl)amino)ethanone], the cytotoxic concentration (CC50) in data set [3] worked out at 11 µM.

Regarding `COc1cc(NC(C(=O)c2c[nH]c3cc(OC)c(C)cc23)c2ccc(F)cc2OC)cc(OCCO)c1` (single isomer, unassigned) [Compound 6A, 2-(4-fluoro-2-methoxyphenyl)-2-((3-(2-hydroxyethoxy)-5-methoxyphenyl)amino)-1-(6-methoxy-5-methyl-1H-indol-3-yl)ethanone], the cytotoxic concentration (CC50) in data set [4] was found to be 7.5 µM; in data set [3], 17 µM.

With `COc1cc(NC(C(=O)c2c[nH]c3cc(OC)c(F)cc23)c2ccc(F)cc2OC)cc(OCCO)c1` (single isomer, unassigned) [Compound 7A, 2-(4-fluoro-2-methoxyphenyl)-1-(5-fluoro-6-methoxy-1H-indol-3-yl)-2-((3-(2-hydroxyethoxy)-5-methoxyphenyl)amino)ethanone], the cytotoxic concentration (CC50) in data set [4] was more than 8.6 µM; in data set [3] it was 18 µM. In data set [2], this compound displayed a cytotoxic concentration (CC50) at 3 days of 3.8 µM.

`COc1cc(NC(C(=O)c2c[nH]c3c(Cl)c(OC)ccc23)c2ccc(F)cc2OC)cc(OCCO)c1` (single isomer, unassigned) [Compound 8A, 1-(7-chloro-6-methoxy-1H-indol-3-yl)-2-(4-fluoro-2-methoxyphenyl)-2-((3-(2-hydroxyethoxy)-5-methoxyphenyl)amino)ethanone] displayed a CC50 at 3 days in data set [2] of 10 µM.

In turn, `COc1cc(NC(C(=O)c2c[nH]c3c(C)cc(F)cc23)c2ccc(F)cc2OC)cc(OCCO)c1` (single isomer, unassigned) [Compound 9B, 2-(4-fluoro-2-methoxyphenyl)-1-(5-fluoro-7-methyl-1H-indol-3-yl)-2-((3-(2-hydroxyethoxy)-5-methoxyphenyl)amino)ethanone] showed a CC50 at 3 days in data set [2] of 3.8 µM. In data set [3], this compound registered a CC50 of 14 µM.

The compound `COc1cc(NC(C(=O)c2c[nH]c3cc(F)c(F)cc23)c2ccc(F)cc2OC)cc(OCCO)c1` (single isomer, unassigned) [Compound 10B, 1-(5,6-difluoro-1H-indol-3-yl)-2-(4-fluoro-2-methoxy-phenyl)-2-((3-(2-hydroxyethoxy)-5-methoxyphenyl)amino)ethanone] returned a CC50 in data set [3] of 11 µM.

`COc1cc(NC(C(=O)c2c[nH]c3c(C)c(OC)ccc23)c2ccc(F)cc2OC)cc(OCCO)c1` (single isomer, unassigned) [Compound 11A, 2-(4-fluoro-2-methoxyphenyl)-2-((3-(2-hydroxyethoxy)-5-methoxyphenyl)amino)-1-(6-methoxy-7-methyl-1H-indol-3-yl)ethanone] gave a CC50 at 3 days in data set [2] of 6.3 µM. This compound registered a CC50 in data set [3] of 12 µM.

In turn, `COc1cc(NC(C(=O)c2c[nH]c3c(F)cc(C)cc23)c2ccc(F)cc2OC)cc(OCCO)c1` (single isomer, unassigned) [Compound 12B, 2-(4-fluoro-2-methoxyphenyl)-1-(7-fluoro-5-methyl-1H-indol-3-yl)-2-((3-(2-hydroxyethoxy)-5-methoxyphenyl)amino)ethanone] gave a cytotoxic concentration (CC50) at 3 days in data set [2] of 5 µM. This compound returned a cytotoxic concentration (CC50) in data set [3] of 14 µM.
